Source: patent US20120039917A1, “IMMUNO[…]” (priority 2008, published 2012)

How the values were obtained:
proliferating T cells [1] = test: Cell proliferation measured by MTT reduction; type: cell-based; conditions: Homo sapiens, 48 h incubation, read-out: IC50 inhibition of MTT reduction (proliferation)
Experimental: (§1) Immediately prior to experiments, frozen PBMC were thawed, centrifuged at 1400 rpm in a Multifuge 3 s (Heraeus) for 4 min, washed in RPMI+10% FCS and resuspended in T cell medium (RPMI+10% FCS+10 μM 2-mercaptoethanol (Sigma), 1×glutamine, 1×non-essential amino acids (Gibco)) at 2×10^6 cells/mL. Cells (2×10^5) were activated by adding 10 μg/mL anti-CD3 and 5 μg/mL anti-CD28 and 20 U/mL IL-2 per well. Cells were incubated at 37° C. in a humidified incubator maintained at 5% CO2 for 4 to 5 days until large numbers of large spherical aggregates or “bursts” of lymphocytes were observed. Activated proliferating T cells were pooled from the wells for further experiments. Resting T cells were incubated for the same length of time but in the presence of 20 U/mL IL-2 only.
(§2) MTT reduction was measured as previously described (Berridge et al., 1996) in a microplate format as follows: exponentially growing cells were centrifuged at 1400 rpm in a Multifuge 3 s (Heraeus) for 4 min, washed and resuspended in HBSS buffer. […] After 2 h, 100 μL of lysing buffer was added and formazan crystals dissolved by manual pipetting using a multichannel pipette before measuring A570 in a BMG FLUOstar OPTIMA plate reader. […]

resting T cells [2] = test: Cell proliferation measured by MTT reduction; type: cell-based; conditions: Homo sapiens, 48 h incubation, read-out: IC50 inhibition of MTT reduction (proliferation)
Experimental: as §1, §2

HL60p° = test: Sensitivity of cell types to PXD, viability by AV/PI staining; type: cell-based; conditions: Homo sapiens, 10 μM PXD for 24 h, read-out: [% viable blasts after PXD exposure]/[% viable blasts after 0.1% DMSO exposure]
Experimental: (§3) FIG. 6. Sensitivity of different cell types to PXD. Different cell types were incubated with 10 μM PXD for 24 h and viability was determined by AV/PI staining and reported as [% viable blasts after PXD exposure]/[% viable blasts after 0.1% DMSO exposure]. Percentage values are as follows: AML-derived HL60: 16±5 and HL60p°: 54±6, ALL-derived MOLT-4: 44±4, MM-derived U226: 59±6 and RPMI 8226: 12±4, primary AML blasts: 64±5, primary ALL blasts: 23±4, normal BM: 89±5, proliferating T cells: 69±4, resting T cells: 98±6. Results from cell lines are presented as the average±SEM of at least 3 separate experiments, results from bone marrow samples are presented as the average±SD of single experiments performed in duplicate.
(§4) Cell lines were grown in RPMI-1640 medium (GIBCO-BRL, Grand Island, N.Y.) supplemented with 5% (v/v) fetal calf serum, 2 mM […], 25 μg/mL penicillin, 25 μg/mL streptomycin, 50 μg/mL uridine and 1 mM pyruvate to densities of 1-2×10^6 cells/mL (exponential stage), at 37° C. in a humidified incubator maintained at 5% CO2.
(§5) Cells were centrifuged at 1400 rpm in a Multifuge 3 s (Heraeus) for 4 min at room temperature, washed in phosphate buffered saline solution, pH 7.3 (PBS) and resuspended in Annexin V binding buffer. Small aliquots (0.5-1×10^6 cells) were transferred to 1.5 mL tubes and spun at 1400 rpm in a Multifuge 3 s (Heraeus) for 4 min. Most supernatant was removed and 5 μL PI and 5 μL FITC-labelled AV was added to the wet pellets which were vortexed. After 30 min in the dark on ice, 500 μl of AV binding buffer was added, the cells were centrifuged for 2 min at 1400 rpm, washed once with AV binding buffer and resuspended in 300 μL of AV binding buffer in FACS tubes. Staining was analyzed by flow cytometry using a Becton Dickinson Canto II FACS analyser using FlowJo (TreeStar) software.

AML-derived HL60 = test: as above; type: cell-based; conditions: Homo sapiens, HL-60; HL60, 10 μM PXD for 24 h; read-out: [% viable blasts after PXD exposure]/[% viable blasts after 0.1% DMSO exposure]
Experimental: as §3, §4, §5

ALL-derived MOLT-4 = test: as above; type: cell-based; conditions: Homo sapiens; MOLT-4, 10 μM PXD for 24 h; read-out: [% viable blasts after PXD exposure]/[% viable blasts after 0.1% DMSO exposure]
Experimental: as §3, §4, §5

MM-derived U226 = test: as above; type: cell-based; conditions: Homo sapiens; U226, 10 μM PXD for 24 h; read-out: [% viable blasts after PXD exposure]/[% viable blasts after 0.1% DMSO exposure]
Experimental: as §3, §4, §5

[3] = as above; type: cell-based; conditions: human, normal bone marrow cells; normal BM, 10 μM PXD for 24 h; read-out: [% viable blasts after PXD exposure]/[% viable blasts after 0.1% DMSO exposure]
Experimental: as §3
Bone marrow samples from AML (n=22) and ALL (n=8) patients, containing more than 80% blasts, were selected from the tissue bank. […] was determined by AV/PI staining as [% viable blasts after PXD treatment]/[% viable blasts in control sample].
Cells were centrifuged at 1400 rpm in a Multifuge 3 s (Heraeus) for 4 min at room temperature, washed in phosphate buffered saline solution, pH 7.3 (PBS) and resuspended in Annexin V binding buffer. […] Staining was analyzed by flow cytometry using a Becton Dickinson Canto II FACS analyser using FlowJo (TreeStar) software.

proliferating T cells [4] = test: Cell viability measured by Trypan blue exclusion; type: cell-based, human; conditions: 10 μM PXD
Experimental: as §1
(§6) Proliferating and resting PBMCs were centrifuged at 1400 rpm in a Multifuge 3 s (Heraeus) for 4 min at room temperature, resuspended in fresh T cell medium in 96 U-well plates (200 μL per well at densities of 2×10^6 cells/mL) in the presence of PXD or 0.1% DMSO and incubated in a 5% CO2, 37° C. humidified incubator. Viable cells, as determined by Trypan blue exclusion, were counted in a Neubauer haemocytometer every 24 h for several days.

resting T cells [5] = test: Cell viability measured by Trypan blue exclusion; type: cell-based, human; conditions: 10 μM PXD
Experimental: as §1, §6

Compound `Oc1ccc(C2=Cc3ccc(O)cc3OC2)cc1` [PXD, Isoflav-3-en-4′,7-diol] has an IC50 (proliferating T cells [1]) of 5.4 µM, an IC50 (resting T cells [2]) of over 200 µM and a viability at 10 µM (HL60p°) of 54 ± 6%. It also gave a viability at 10 µM (AML-derived HL60) of 16 ± 5%, a viability at 10 µM (ALL-derived MOLT-4) of 44 ± 4% and a viability at 10 µM (MM-derived U226) of 59 ± 6%. The viability at 24 h, 10 μM [3] was 89 ± 5%, the “viability (Trypan blue exclusion)” value (proliferating T cells [4]) was “severely compromised” and the “viability (Trypan blue exclusion)” value (resting T cells [5]) was “remain viable”.
